Reference: patent publication US20050282745A1, “Non-mammalian GnRH analogs and uses thereof in regulation of fertility and pregnancy” (priority 2001, published 2005)

Legend:
[1] = test system: human placental GnRH receptor; assay: Placental GnRH receptor binding, 125I-Buserelin label
Method: The newly synthesized non-mammalian GnRH analogs and other commercially available mammalian GnRH analogs were used in placental receptors binding and enzyme stability study described here. […] GnRH receptors were purified from the membrane fractions from placentas. The purification procedure for the placental GnRH receptor was performed using a modification of the method described by Bramley et al., which reference is specifically incorporated herein by reference for the purpose. Addition of enzyme inhibitors for the endogenous C-ase-1 were used as well as agents for receptor stabilization. Initially, receptor-binding assays using ^125I-Buserelin as label were performed. The competitive binding of each of the analogs was studied over a dose range of 10^−11 to 10^−6 M. Incubation was at room temperature and receptor bound label was precipitated with polyethylene glycol. Specific and non-specific binding was determined. The data was subjected to Scatchard analysis. The non-mammalian GnRH analogs' ability to bind to the placental GnRH receptor was compared to that for synthetic mammalian GnRH (SEQ ID NO: 5), Buserelin (SEQ ID NO: 10) and other mammalian analogs. […] This way, the receptor affinity for that analog could be precisely determined. Receptors from three different term placentas were used to study each of these analogs. […] Bramley T A, McPhie C A, Menzies G S 1994 Human placental gonadotropin-releasing hormone (GnRH) binding sites: 111. […] Placenta 15:733-745.
In these and additional studies, placental GnRH receptors were purified from human term placentas after homogenization in 40 mM Tris (pH 7.4) and filtered through cheesecloth, followed by an initial centrifugation at 1,000×g for 10 minutes. The resulting supernatant was, again, centrifuged at 35,000×g for 30 minutes and the membrane pellet was collected and resuspended in Tris buffer with 0.3 M sucrose. The protein concentration was determined. Membranes were stored frozen at −20 C until use. Before use, placental membranes were diluted to 5,000 μg/mL with Tris buffer containing 0.5% BSA and 50 U/mL bacitracin. […] Following incubation at room temperature for 4 hours, the bound and free hormones were separated using polyethylene glycol precipitation, followed by centrifugation. The binding affinity for each GnRH isoform or analog was calculated using the double reciprocal plot of bound versus free ligand. Each study was done using three different human term placental tissues.
Receptor assays were performed by incubating human term placental GnRH receptors with varying concentrations of GnRH or its analogs in the presence of ^125I-Buserelin. The reaction was stopped and the bound hormone precipitated with polyethylene glycol.

[2] = test system: early human placental explants; assay: Placental explant perifusion, hCG release; format: cell-based
Source text: Placental tissues that are normally discarded were obtained from unidentified patients following first trimester pregnancy termination (early human placental explants). Tissue fragments, dissected of vessels and membranes, were placed in a perfusion system for study of 20 replicate chambers of the same tissue. This allows for simultaneous dose-response studies to be performed. To achieve this specific aim, explants from a given placenta were placed in 20 replicate chambers and perfused with basal medium for three hours at a rate of 6 ml/hr (dead volume of the system at 6 ml/hr is ten minutes). After three hours of equilibration, the analog was added to the basal perfusing medium. Quaduplicate chambers were made for chicken II GnRH analog (SEQ ID NO: 2) at 0, 10^−9, 10^−8, 10^−7, 10^−6 M and Buserelin (SEQ ID NO: 10) at 10^−7 M. The effluent medium of each chamber was collected after a three hour equilibration period. Two basal samples, at half hour intervals were collected, media with test substances was initiated and effluent medium collection continued for four and one half hours at thirty minute intervals. The hCG release was analyzed in each of these experiments. FIGS. 16 and 17 illustrate a typical response. […] Maximal response was observed within minutes after initiation of perfusion at 10^−8 M, with possible down regulation beginning after five hours at 10^−6 M as illustrated in FIG. 18.
In additional experiments, early gestation human placentas were perfused for six hours with medium supplemented with estradiol, progesterone, bovine serum albumin, and antibiotics (basal medium). Twenty replicate chambers were perifused with basal medium for two hours, then triplicate chambers were perifused with the medium containing either Buserelin (SEQ ID NO: 10), or 10^−9, 10^−8, 10^−7, 10^−6 M of a chicken II GnRH analog (SEQ ID NO: 2), leaving five control chambers. The eluted medium was collected at thirty minute intervals, starting one hour prior to the addition of GnRH analogs and throughout five hours of treatment. hCG released into the effluent media, as well as the production of GnRH, were measured using sensitive and specific radioimmunoassays. The release of hCG at each time point was normalized to its zero treatment release and the release throughout the treatment period and its average release was compared for various treatment regimens. These studies were repeated using tissues from three different first trimester placentas. The results of this experiment are illustrated in FIG. 20.

[3] = test system: baboon granulosa cells; assay: Baboon granulosa cell culture, progesterone release; format: cell-based; details: chicken II analog 10^−9 to 10^−6 M; Buserelin 10^−7
Source text: The biopotency of chicken II GnRH analogs (SEQ ID NO: 2) in the regulation of baboon ovarian function was studied. The effect of mammalian and chicken II GnRH analogs (SEQ ID NO: 2) on ovarian progesterone release was studied using granulosa cell cultures. The dose-related action of a stable analog of chicken II GnRH (SEQ ID NO: 2) on progesterone production was defined using baboon granulosa cell cultures. After a two hour basal study period, the medium was supplemented with either Buserilin (SEQ ID NO: 10) (10^−7) or a chicken II GnRH analog (SEQ ID NO: 2) (10^−9, 10^−8, 10^−7, 10^−6 M) leaving four control wells. […] This inhibition was sustained after 48 hours of treatment. […] In addition, the action of the analog on three different stromal and three different epithelial endometrial primary cell lines (after 3-5 passages) has been studied and PGE2 determined as indicated in FIG. 31.

[4] = molecular target: placental GnRH receptor; assay: Mean
Source text: Table printed on a drawing sheet, Fig. 1
The patent's description of the figure: FIG. 1. Placental Kds for Chicken II and Mammalian GnRH Analogs
First copying reader's note: Each column is one GnRH analog; the rows are Kd values in individual placentas, followed by the mean and SEM.
Where the first naming reader finds the target: passage: the affinity for the placental GnRH receptor was enhanced 2 fold

[5] = test system: chorionic peptidase-1 (C-ase-1); assay: C-ase-1 enzyme activity assay, competition for degradation of GnRH
Method: Using the incubation system developed for the C-ase-1 activity, the degradation of each analog was tested. […] These studies were done using the C-ase-1 enzyme activity assay as described previously. […] The product formed was calculated by subtraction, and its inverse plotted against the inverse of the original substrate concentrations to determine the nature of the competition. The Ki was to be determined by plotting the inverse of the product that formed verses the inhibitor used.
The concentration of the product of the degraded GnRH was quantified by subtracting the remaining mammalian GnRH from the starting concentrations of mammalian GnRH. […] The Ks for the degradation of mammalian GnRH was calculated from the x axis intercept using Lineweaver-Burke double reciprocal plot of the concentration of the product formed versus the concentration of the substrate used.
The reaction was stopped by heating at 85° C. for 10 minutes. The remaining GnRH was determined using a specific radioimmunoassay. The formation of product, i.e., the N-terminal nonapeptide of GnRH, was calculated by subtraction and its inverse was plotted versus the inverse of the initial substrate to determine the Ks of the reaction. […] The relative potency of each analog was compared.
Using the incubation system developed for the C-ase-1 activity, the degradation of each analog was studied. […] The inverse of the product was plotted against the inverse of the original substrate concentrations to determine Ks of the competition. The Ki was determined by plotting the inverse of the product formed verses the inhibitor used.

CCNC(=O)[C@@H]1CCCN1C(=O)[C@H](CCCNC(=N)N)NC(=O)[C@H](CC(C)C)NC(=O)[C@@H](COC(C)(C)C)NC(=O)[C@H](Cc1ccc(O)cc1)NC(=O)[C@H](CO)NC(=O)[C@H](Cc1c[nH]c2ccccc12)NC(=O)[C@H](Cc1cnc[nH]1)NC(=O)[C@@H]1CCC(=O)N1 [Buserelin]
receptor activity/potency compared with GnRH ([1]; 125I-Buserelin, Example VI): twice as active
receptor binding potency compared with mammalian GnRH ([1]; Buserelin label, Example II): three-fold more potent
hCG response ([2]; 10^−7 M): small stimulation of hCG at early time points
average stimulation of hCG release, relative to control tissues ([2]; throughout five hours of perifusion): 150%
effect on progesterone release, in words [3]: without significant effect
Kd [4]: 579 ± 84 nM
degradation by / competition for C-ase-1, in words [5]: potent competitive inhibitors
degradation/competition relative to mammalian GnRH ([5]; Example III): one fourth the rate
Ki ([5]; competition for degradation of mammalian GnRH, Example III): 110 nM
